Experimental data published in patent publication US20210171576A1, “METHODS FOR TREATING CANCER WITH ACYLDEPSIPEPTIDE ANALOGS” (priority 2018, published 2021).
pKd: −log10 of the molar value. Where a SMILES comes first, the peptide text is derived from it. Bridges are numbered along the chain shown (N, C = ends). [ ]: non-standard residue; d: D form. The star is where a group is joined. Phe(3,5-F2) = N[C@@H](Cc1cc(F)cc(F)c1)C(=O)O; Heptenoyl(2E) = CCCC/C=C/C(=O)*; aThr = C[C@H](O)[C@H](N)C(=O)O; Pip = O=C(O)[C@@H]1CCCCN1

What was measured:
HsCIpP = target: T1, HsCIpP (Homo sapiens, UniProt Q16740, P57S); experiment: Protease activity assay (casein-FITC degradation) with ADEP, independent of HsCIpX; assay type: biochemical; conditions: 3 μM HsCIpP, 10 μM casein-FITC, no HsCIpX; read-out: K0.5 (microscopic apparent dissociation constant), protease activity
T1 construct: 2x(His6-thrombin)-SUMO (N, cleaved yes); made in house; host or cells: E. coli (SG1146 stated for HsClpP; 'a similar protocol' for HsClpX)
Description: The protease activity of purified HsCIpP was assessed by monitoring the degradation of bovine milk casein labelled with fluorescein isothiocyanate (casein-FITC) (Sigma-Aldrich) in the presence of ADEP and/or purified HsCIpX. All reactions were carried out in 25 mM HEPES, pH 7.5, 35 mM KCl, 25 mM MgCl2, 0.03% Tween-20, 10% glycerol, and 1 mM DTT, supplemented with 16 mM creatine phosphate and 300 μM ATP. HsCIpP was used at 3 μM (final monomeric concentration) and casein-FITC was added at the final concentration of 10 μM. 13 U of creatine phosphokinase (Sigma-Aldrich) was also added for ATP regeneration. DMSO was present at 1% (v:v) final concentration in the experiments that involve the use of ADEP analogs. All reactions were carried out with 150 μL of the reaction mix per well in a 96-well black flat-bottom plate at 37° C. Degradation of casein-FITC and subsequent release of the free FITC moiety was monitored by fluorescence with λex=494 nm and λem=518 nm using the EnSpire 2300 Multilabel Reader set to perform a reading every 40 s with 20 flashes. A total of 100 readings were collected in each experiment. […]
The effect of ADEP in activating HsCIpP was assessed via the degradation of casein-FITC by HsCIpP independent of HsCIpX. […] Initial rates data were collected and analyzed using the Hill equation above to determine Vmax, h and K0.5 for each ADEP analog. […]

HEK293 T-REx WT cells = experiment: TUNEL assay, fluorescence microscopy; assay type: cell-based, human; conditions: 10 μM, 72 hours
Description: Prior to use, the cover slips were cleaned by treatment with 1 M HCl for 2-3 days, followed by thorough rinsing with distilled water and a second treatment with 95% ethanol for 16-18 hours. The cleaned cover slips were sterilized by autoclaving and dried under UV light. To ensure proper attachment of the cells, the sterilized cover slips were coated with gelatin by application of a 0.2% solution and incubation at 37° C. for at least 2 hours. Excess gelatin solution was then removed, and the cover slips were allowed to dry in a sterile environment for 2-4 hours before use.
WT cells treated with ADEP-41 were seeded at a density of 1×10^5 cells/mL (2 mL per well) to compensate for lack of cell growth and division resulting from the ADEP treatment. […]
Cells were fixed in the presence of 4% formaldehyde at room temperature for 30-45 minutes, followed by membrane permeabilization with 0.1% Triton X-100 (in PBS from Gibco) supplemented with 0.1% sodium citrate at room temperature for 30 minutes. […] Cells were mounted onto standard glass microscope slides with DAPI Fluoromount-G (Southern Biotech) for visual examination using the Eclipse 80i fluorescence microscope (Nikon) equipped with the X-Cite Series 120Q excitation light source (Excelitas Technologies). Both light and fluorescence microscopic images were captured and analyzed using the NIS-Elements Basic Research Software (Nikon).

T1 sequence (Q16740 57-277 P57S): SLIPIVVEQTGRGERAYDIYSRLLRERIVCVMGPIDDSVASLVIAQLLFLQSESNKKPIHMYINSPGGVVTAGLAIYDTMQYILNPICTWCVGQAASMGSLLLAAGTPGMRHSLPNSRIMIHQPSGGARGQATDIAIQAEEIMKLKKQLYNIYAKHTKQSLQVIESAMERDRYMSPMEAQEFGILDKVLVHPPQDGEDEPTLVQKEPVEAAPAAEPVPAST

Compound: CCCC/C=C/C(=O)N[C@@H](Cc1cc(F)cc(F)c1)C(=O)N[C@@H]1C(=O)N2CCC[C@H]2C(=O)N2CCCC[C@H]2C(=O)N[C@@H](C)C(=O)N2CCC[C@H]2C(=O)O[C@H]1C [ADEP-41] ({Heptenoyl(2E)}-[Phe(3,5-F2)][aThr]P[Pip]AP; ester 2-C)
- pKd (HsCIpP): 6.92
- TUNEL-positive cells relative to DMSO-treated WT cells (HEK293 T-REx WT cells): about 20 times
